Reference: patent US20090311237A1, “Combination therapy using a soluble hyaluronidase and a bisphosphonate” (priority 2008, published 2009)
Read-outs that look alike come from different tables or passages of the source.

Test: Phase 1 Stage 1 clinical pharmacokinetics of SC ZA co-administered with rHuPH20
Type: in vivo, human
Details: human, serum, sc; for MRT: read-out: MRT; for Tmax: read-out: Tmax; for AUC(0-inf): read-out: AUC (0-∞); for AUC(0-t): ZA […] SC
Experimental: A pharmacokinetic study of zoledronic acid (ZA) co-administered with rHuPH20 in human subjects was conducted. The primary objective of the study was to determine the bioavailability of zoledronic acid dosed via subcutaneous (SC) co-administration with human recombinant hyaluronidase PH20 (rHuPH20). […] The patients were administered the prescribed dosage formulations as follows: Cohorts 1-5 were administered a single subcutaneous infusion in a dosage volume of 100 ml at a rate of 3 mL/min. […] The dosing solution is administered via needle or catheter into the SC space of the left anterior thigh (midway between the anterior iliac crest and the cephalad border of the patella). For cohorts 1-5, the dosing solutions were administered by a controlled rate infusion pump at approximately 3 mL/minute. […] The dosing solutions were administered by syringe push bolus injection. […] Serum concentration of ZA was determined using a qualified LC-MS-MS assay after derivatization with diazomethane (Zhu, L S et al. (2006) Rapid Commun. […] The assay range was from 2.0 to 400 ng/mL with a lower limit of quantitation (LLOQ) at 2.0 ng/mL. […] Non-compartmental analysis was used for derivation of primary and secondary pharmacokinetic (PK) parameters. […] Summary statistics (mean, standard deviation, and median) were calculated using JMP or Microsoft Excel.

[1] = ZA 1 mg SC + 24000 U rHuPH20, individual subjects
[2] = ZA 1 mg SC + 24000 U rHuPH20, mean, n=3
[3] = ZA 1 mg SC + 24000 U rHuPH20, median, n=3
[4] = ZA 2 mg SC + 24000 U rHuPH20, individual subjects
[5] = ZA 2 mg SC + 24000 U rHuPH20, mean, n=3
[6] = ZA 2 mg SC + 24000 U rHuPH20, median, n=3
[7] = ZA 5 mg SC + 24000 U rHuPH20, individual subjects
[8] = ZA 5 mg SC + 24000 U rHuPH20, mean, n=3
[9] = ZA 5 mg SC + 24000 U rHuPH20, median, n=3

O=P(O)(O)C(O)(Cn1ccnc1)P(=O)(O)O [ZA, 1-hydroxy-2-(1H-imidazol-1-yl)ethylidene-1,1-bisphosphonic acid]
MRT [1]: 6.93 h | Tmax [1]: 1.31 h | Vd/F (ZA 1 mg SC + 24000 U rHuPH20, individual subjects, read-out: Vss/F): 0.988 L/kg | Vd/F (ZA 1 mg SC + 24000 U rHuPH20, individual subjects, read-out: Vz/F): 2.65 L/kg | CL/F [2]: 2.15 mL/min/kg | Cmax [2]: 29.5 ng/mL | AUC(0-inf) [2]: 134 ng·h/mL | MRT [2]: 6.61 h | Tmax [2]: 1.03 h | Vd/F (ZA 1 mg SC + 24000 U rHuPH20, mean, n=3, read-out: Vss/F): 0.852 L/kg | Vd/F (ZA 1 mg SC + 24000 U rHuPH20, mean, n=3, read-out: Vz/F): 2.13 L/kg | CL/F [3]: 2.38 mL/min/kg | Cmax [3]: 30.1 ng/mL | AUC(0-inf) [3]: 122 ng·h/mL | MRT [3]: 6.66 h | Tmax [3]: 1.06 h | Vd/F (ZA 1 mg SC + 24000 U rHuPH20, median, n=3, read-out: Vss/F): 0.988 L/kg | Vd/F (ZA 1 mg SC + 24000 U rHuPH20, median, n=3, read-out: Vz/F): 2.05 L/kg | CL/F [4]: 2.25 mL/min/kg | Cmax [4]: 62.8 ng/mL | AUC(0-inf) [4]: 246 ng·h/mL | MRT [4]: 5.72 h | Tmax [4]: 1.31 h | Vd/F (ZA 2 mg SC + 24000 U rHuPH20, individual subjects, read-out: Vss/F): 0.774 L/kg | Vd/F (ZA 2 mg SC + 24000 U rHuPH20, individual subjects, read-out: Vz/F): 2.48 L/kg | CL/F [5]: 2.11 mL/min/kg | Cmax [5]: 58.2 ng/mL | AUC(0-inf) [5]: 262 ng·h/mL | MRT [5]: 7.5 h | Tmax [5]: 1.48 h | Vd/F (ZA 2 mg SC + 24000 U rHuPH20, mean, n=3, read-out: Vss/F): 0.941 L/kg | Vd/F (ZA 2 mg SC + 24000 U rHuPH20, mean, n=3, read-out: Vz/F): 2.87 L/kg | CL/F [6]: 2.06 mL/min/kg | Cmax [6]: 58.7 ng/mL | AUC(0-inf) [6]: 246 ng·h/mL | MRT [6]: 6.19 h | Tmax [6]: 1.56 h | Vd/F (ZA 2 mg SC + 24000 U rHuPH20, median, n=3, read-out: Vss/F): 0.774 L/kg | Vd/F (ZA 2 mg SC + 24000 U rHuPH20, median, n=3, read-out: Vz/F): 2.48 L/kg | CL/F [7]: 2.11 mL/min/kg | Cmax [7]: 131 ng/mL | AUC(0-inf) [7]: 620 ng·h/mL | MRT [7]: 10.9 h | Tmax [7]: 0.81 h | Vd/F (ZA 5 mg SC + 24000 U rHuPH20, individual subjects, read-out: Vss/F): 1.39 L/kg | Vd/F (ZA 5 mg SC + 24000 U rHuPH20, individual subjects, read-out: Vz/F): 4.27 L/kg | CL/F [8]: 1.85 mL/min/kg | Cmax [8]: 132 ng/mL | AUC(0-inf) [8]: 662 ng·h/mL | MRT [8]: 12.5 h | Tmax [8]: 0.98 h | Vd/F (ZA 5 mg SC + 24000 U rHuPH20, mean, n=3, read-out: Vss/F): 1.38 L/kg | Vd/F (ZA 5 mg SC + 24000 U rHuPH20, mean, n=3, read-out: Vz/F): 3.92 L/kg | CL/F [9]: 1.85 mL/min/kg | Cmax [9]: 131 ng/mL | AUC(0-inf) [9]: 637 ng·h/mL | MRT [9]: 12.7 h | Tmax [9]: 0.81 h | Vd/F (ZA 5 mg SC + 24000 U rHuPH20, median, n=3, read-out: Vss/F): 1.39 L/kg | Vd/F (ZA 5 mg SC + 24000 U rHuPH20, median, n=3, read-out: Vz/F): 3.91 L/kg | AUC(0-t) (AUC (0-12 h), Subj 1, inf 0.554 hr, PH20 23928 U): 29.2 ng·h/mL | AUC(0-t) (AUC (0-12 h), Subj 8, inf 0.531 hr, PH20 22944 U): 28.8 ng·h/mL | AUC(0-t) (AUC (0-12 h), Subj 11, inf 0.554 hr, PH20 23928 U): 29.4 ng·h/mL | AUC(0-t) (AUC (0-12 h), Subj 16, inf 0.553 hr, PH20 23904 U): 60.8 ng·h/mL | AUC(0-t) (AUC (0-12 h), Subj 18, inf […], PH20 23304 U): 66.2 ng·h/mL | AUC(0-t) (AUC (0-12 h), Subj 21, inf 0.556 hr, PH20 24000 U): 62.4 ng·h/mL | AUC(0-t) (AUC (0-12 h), Subj 25, inf 0.549 hr, PH20 23736 U): 103 ng·h/mL | AUC(0-t) (AUC (0-12 h), Subj 26, inf […], PH20 23088 U): 137 ng·h/mL | AUC(0-t) (AUC (0-12 h), Subj 31, inf 0.554 hr, PH20 23952 U): 213 ng·h/mL | AUC(0-t) (AUC (0-12 h), Subj 32, inf 0.556 hr, PH20 24000 U): 238 ng·h/mL | AUC(0-t) (AUC (0-12 h), Subj 51, inf 0.251 hr, PH20 6024 U): 384 ng·h/mL | AUC(0-t) (AUC (0-12 h), Subj 77, inf […], PH20 6000 U): 516 ng·h/mL | AUC(0-t) (AUC (0-24 h), Subj 1, inf 0.554 hr, PH20 23928 U): 29.4 ng·h/mL | AUC(0-t) (AUC (0-24 h), Subj 8, inf 0.531 hr, PH20 22944 U): 29.4 ng·h/mL | AUC(0-t) (AUC (0-24 h), Subj 11, inf 0.554 hr, PH20 23928 U): 29.9 ng·h/mL | AUC(0-t) (AUC (0-24 h), Subj 16, inf 0.553 hr, PH20 23904 U): 62.9 ng·h/mL | AUC(0-t) (AUC (0-24 h), Subj 18, inf […], PH20 23304 U): 68.5 ng·h/mL | AUC(0-t) (AUC (0-24 h), Subj 21, inf 0.556 hr, PH20 24000 U): 64.7 ng·h/mL | AUC(0-t) (AUC (0-24 h), Subj 25, inf 0.549 hr, PH20 23736 U): 112 ng·h/mL | AUC(0-t) (AUC (0-24 h), Subj 26, inf […], PH20 23088 U): 147 ng·h/mL | AUC(0-t) (AUC (0-24 h), Subj 31, inf 0.554 hr, PH20 23952 U): 228 ng·h/mL | AUC(0-t) (AUC (0-24 h), Subj 32, inf 0.556 hr, PH20 24000 U): 257 ng·h/mL | AUC(0-t) (AUC (0-24 h), Subj 51, inf 0.251 hr, PH20 6024 U): 430 ng·h/mL | AUC(0-t) (AUC (0-24 h), Subj 77, inf […], PH20 6000 U): 566 ng·h/mL | AUC(0-t) (AUC (0-48 h), Subj 1, inf 0.554 hr, PH20 23928 U): 29.4 ng·h/mL | AUC(0-t) (AUC (0-48 h), Subj 8, inf 0.531 hr, PH20 22944 U): 29.4 ng·h/mL | AUC(0-t) (AUC (0-48 h), Subj 11, inf 0.554 hr, PH20 23928 U): 29.9 ng·h/mL | AUC(0-t) (AUC (0-48 h), Subj 16, inf 0.553 hr, PH20 23904 U): 64.2 ng·h/mL
